Measurements taken from PMC6128854 (Scientific Reports, 2018).
Positions of bridges follow the written chain, without caps; N, C: chain ends. Non-standard residues stand in square brackets, D forms with d. Residues, ends and D or L forms follow the SMILES beside them. Hyp = O=C(O)[C@@H]1C[C@@H](O)CN1

Columns and labels:
[1] = target: Cav2.2 in human SH-SY5Y cell membranes (Homo sapiens, UniProt Q00975); experiment: biochemical; type: binding; conditions: SEM
[2] = target: hCav2.2 (Homo sapiens, UniProt Q00975); experiment: cell-based; conditions: SEM
hCav2.2, sequence (Q00975 whole entry, looked up): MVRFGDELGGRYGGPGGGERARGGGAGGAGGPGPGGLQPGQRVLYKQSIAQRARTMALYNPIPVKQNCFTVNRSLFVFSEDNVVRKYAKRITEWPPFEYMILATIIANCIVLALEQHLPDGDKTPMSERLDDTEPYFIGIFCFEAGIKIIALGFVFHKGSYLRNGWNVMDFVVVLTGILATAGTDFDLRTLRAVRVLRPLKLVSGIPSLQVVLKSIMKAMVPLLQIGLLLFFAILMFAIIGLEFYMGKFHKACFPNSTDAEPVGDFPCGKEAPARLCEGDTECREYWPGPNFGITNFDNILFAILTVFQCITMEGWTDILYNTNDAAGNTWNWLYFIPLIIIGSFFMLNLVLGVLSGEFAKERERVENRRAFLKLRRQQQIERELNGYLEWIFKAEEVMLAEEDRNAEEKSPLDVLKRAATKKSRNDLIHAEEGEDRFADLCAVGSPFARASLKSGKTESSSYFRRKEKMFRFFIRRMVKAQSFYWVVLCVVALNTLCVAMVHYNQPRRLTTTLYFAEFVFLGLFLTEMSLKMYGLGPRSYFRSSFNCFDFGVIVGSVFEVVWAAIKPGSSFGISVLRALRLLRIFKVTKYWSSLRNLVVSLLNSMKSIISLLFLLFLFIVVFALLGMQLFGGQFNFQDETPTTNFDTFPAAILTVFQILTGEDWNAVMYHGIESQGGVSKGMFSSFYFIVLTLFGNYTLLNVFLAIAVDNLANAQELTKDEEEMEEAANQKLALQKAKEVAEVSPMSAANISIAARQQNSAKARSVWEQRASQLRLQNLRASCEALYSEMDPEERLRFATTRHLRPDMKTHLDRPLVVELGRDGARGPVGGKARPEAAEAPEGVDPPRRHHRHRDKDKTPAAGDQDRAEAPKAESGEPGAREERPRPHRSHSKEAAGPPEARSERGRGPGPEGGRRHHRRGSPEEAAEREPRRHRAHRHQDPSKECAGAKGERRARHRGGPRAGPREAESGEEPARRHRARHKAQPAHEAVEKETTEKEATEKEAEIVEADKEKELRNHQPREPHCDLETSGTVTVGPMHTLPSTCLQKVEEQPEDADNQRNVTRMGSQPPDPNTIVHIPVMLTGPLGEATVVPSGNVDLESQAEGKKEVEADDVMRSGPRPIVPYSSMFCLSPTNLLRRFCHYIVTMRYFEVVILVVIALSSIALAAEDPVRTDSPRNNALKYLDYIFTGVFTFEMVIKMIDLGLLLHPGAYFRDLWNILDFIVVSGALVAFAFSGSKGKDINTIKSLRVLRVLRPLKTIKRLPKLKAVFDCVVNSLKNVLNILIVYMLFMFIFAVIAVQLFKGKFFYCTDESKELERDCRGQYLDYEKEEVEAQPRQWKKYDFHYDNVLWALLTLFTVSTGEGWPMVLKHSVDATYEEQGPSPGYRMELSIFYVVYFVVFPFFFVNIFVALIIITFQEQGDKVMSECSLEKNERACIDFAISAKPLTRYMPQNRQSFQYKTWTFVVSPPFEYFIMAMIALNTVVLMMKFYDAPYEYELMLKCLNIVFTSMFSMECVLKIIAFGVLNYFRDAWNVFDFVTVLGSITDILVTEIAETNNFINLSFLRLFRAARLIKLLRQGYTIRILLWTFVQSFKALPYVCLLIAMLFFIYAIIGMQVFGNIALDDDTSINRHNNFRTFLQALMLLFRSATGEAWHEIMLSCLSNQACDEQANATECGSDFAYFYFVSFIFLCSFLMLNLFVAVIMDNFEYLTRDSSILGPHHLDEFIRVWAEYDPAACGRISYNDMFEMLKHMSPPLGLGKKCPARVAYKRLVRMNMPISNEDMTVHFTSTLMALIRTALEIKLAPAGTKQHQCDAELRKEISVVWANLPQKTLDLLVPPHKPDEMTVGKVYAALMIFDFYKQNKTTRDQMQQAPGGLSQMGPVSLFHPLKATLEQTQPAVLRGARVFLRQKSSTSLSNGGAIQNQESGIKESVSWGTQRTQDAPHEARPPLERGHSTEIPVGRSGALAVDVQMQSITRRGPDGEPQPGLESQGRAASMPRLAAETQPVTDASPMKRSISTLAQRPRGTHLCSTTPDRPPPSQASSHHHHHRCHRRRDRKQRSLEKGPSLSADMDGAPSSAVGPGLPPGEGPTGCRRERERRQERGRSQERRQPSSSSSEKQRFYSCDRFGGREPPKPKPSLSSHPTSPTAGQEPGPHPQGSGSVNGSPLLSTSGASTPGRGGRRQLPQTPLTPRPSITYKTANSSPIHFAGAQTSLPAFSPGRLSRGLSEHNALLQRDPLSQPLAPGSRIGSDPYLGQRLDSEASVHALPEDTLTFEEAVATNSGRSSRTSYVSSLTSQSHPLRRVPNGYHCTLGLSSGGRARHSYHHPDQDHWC

Cav2.2 in human SH-SY5Y cell membranes, sequence (Q00975 whole entry, looked up): as above

| Compound | IC50 [1] | IC50 [2] |
| --- | --- | --- |
| C[C@@H](O)[C@@H]1NC(=O)[C@H](Cc2ccc(O)cc2)NC(=O)[C@@H]2C[C@@H](O)CN2C(=O)[C@H](CC(N)=O)NC(=O)[C@@H]2CSSC[C@@H]3NC(=O)[C@H](CO)NC(=O)[C@H](CO)NC(=O)CNC(=O)[C@@H]4C[C@@H](O)CN4C(=O)[C@H](CO)NC(=O)[C@H](CCCCN)NC(=O)[C@@H](N)CSSC[C@H](NC(=O)[C@H](CSSC[C@@H](C(=O)N[C@@H](Cc4ccc(O)cc4)C(N)=O)NC(=O)[C@H](CCCN=C(N)N)NC(=O)[C@H](CCCCN)NC1=O)NC(=O)[C@H](CC(N)=O)NC(=O)[C@H](Cc1ccc(O)cc1)NC(=O)[C@H](CO)NC(=O)[C@H]([C@@H](C)O)NC(=O)[C@@H]1C[C@@H](O)CN1C(=O)[C@H](CO)NC3=O)C(=O)N[C@@H](CCCN=C(N)N)C(=O)N[C@@H](CO)C(=O)N2 [GVIA, reference compound] | 0.078 ± 0.012 nM | 170 ± 25 nM |
| CC[C@H](C)[C@@H]1NC(=O)[C@@H]2CSSC[C@@H]3NC(=O)[C@H](CCCCN)NC(=O)[C@H](CO)NC(=O)CNC(=O)[C@@H]4C[C@@H](O)CN4C(=O)[C@@H]4CCCN4C(=O)[C@H](CCCCN)NC(=O)[C@@H](N)CSSC[C@H](NC(=O)[C@H](CSSC[C@@H](C(=O)N[C@@H](CCCNC(=N)N)C(=O)N[C@@H](CCCCN)C(=O)N[C@@H](Cc4ccc(O)cc4)C(=O)N[C@@H](Cc4ccc(O)cc4)C(=O)N[C@@H](CC(N)=O)C(=O)O)NC(=O)[C@H](CCCNC(=N)N)NC(=O)[C@H](CCCCN)NC(=O)[C@H]([C@@H](C)O)NC(=O)[C@H](Cc4ccc(O)cc4)NC(=O)[C@H](CO)NC1=O)NC(=O)[C@H](CC(=O)O)NC(=O)[C@H](CCCNC(=N)N)NC(=O)[C@H](CCSC)NC(=O)[C@H](CO)NC(=O)[C@@H]1C[C@@H](O)CN1C(=O)[C@H](CO)NC3=O)C(=O)N[C@@H]([C@@H](C)O)C(=O)N[C@@H]([C@@H](C)O)C(=O)N2 [MoVIA] (H-CKP[Hyp]GSKCS[Hyp]SMRDCCTTCISYTKRCRKYYN-OH; disulfide 1-16, 8-19, 15-26) | 0.035 ± 0.017 nM | 330 ± 18 nM |
| CC[C@H](C)[C@@H]1NC(=O)[C@@H]2CSSC[C@@H]3NC(=O)[C@H](CCCCN)NC(=O)[C@H](CO)NC(=O)CNC(=O)[C@@H]4C[C@@H](O)CN4C(=O)[C@@H]4CCCN4C(=O)[C@H](CCCCN)NC(=O)[C@@H](N)CSSC[C@H](NC(=O)[C@H](CSSC[C@@H](C(=O)N[C@@H](CCCNC(=N)N)C(=O)N[C@@H](CCCCN)C(=O)N[C@@H](Cc4ccc(O)cc4)C(=O)N[C@@H](Cc4ccc(O)cc4)C(=O)O)NC(=O)[C@H](CCCNC(=N)N)NC(=O)[C@H](CCCCN)NC(=O)[C@H]([C@@H](C)O)NC(=O)[C@H](Cc4ccc(O)cc4)NC(=O)[C@H](CO)NC1=O)NC(=O)[C@H](CC(=O)O)NC(=O)[C@H](CCCNC(=N)N)NC(=O)[C@H](CCSC)NC(=O)[C@H](CO)NC(=O)[C@@H]1C[C@@H](O)CN1C(=O)[C@H](CO)NC3=O)C(=O)N[C@@H]([C@@H](C)O)C(=O)N[C@@H]([C@@H](C)O)C(=O)N2 [MoVIB] (H-CKP[Hyp]GSKCS[Hyp]SMRDCCTTCISYTKRCRKYY-OH; disulfide 1-16, 8-19, 15-26) | 0.365 ± 0.204 nM | 600 ± 120 nM |
